The NIST ThermoML archive (doi:10.1016/j.jct.2018.02.022)

Experiment: xn = mol fraction of the nth substance listed
Settings: 92.3 kPa, Liquid; for viscosity: Concentric cylinders viscometry; for speed of sound: Frequency=3 MHz, Single path-length method; for mass density: Vibrating tube method

OCCO [1,2-ethanediol] + O
Settings	mass density, 293.15 K [kg/m3]	mass density, 298.15 K [kg/m3]	speed of sound, 293.15 K [m/s]	speed of sound, 298.15 K [m/s]	viscosity, 293.15 K [mPa·s]	viscosity, 298.15 K [mPa·s]
x1 = 0.0101	1002.83	1001.54	1498.9	1511.9	–	–
x1 = 0.0201	1006.96	1005.57	1514.6	1526.3	–	–
x1 = 0.0302	1011.02	1009.56	1529.7	1540.2	–	–
x1 = 0.0407	1015.07	1013.5	1544.6	1553.8	–	–
x1 = 0.0494	1018.4	1016.76	–	–	1.541	1.253
x1 = 0.0506	1018.75	1017.08	1558.1	1566.2	–	–
x1 = 0.0605	1022.31	1020.55	1570.8	1577.9	–	–
x1 = 0.0704	1025.78	1023.96	1583.2	1589.2	–	–
x1 = 0.0801	1029.04	1027.15	1594	1599	–	–
x1 = 0.0905	1032.34	1030.37	1605.6	1609.6	–	–
x1 = 0.0986	1034.8	1032.78	–	–	2.078	1.68
x1 = 0.0997	1035.3	1033.24	1614.8	1618	–	–
x1 = 0.1483	1048.46	1046.12	–	–	2.699	2.167
x1 = 0.1493	1048.74	1046.4	1656.2	1655.5	–	–
x1 = 0.1985	1059.45	1056.96	1684.5	1681	–	–
x1 = 0.2072	1061.51	1058.86	–	–	3.517	2.811
x1 = 0.2466	1068.68	1065.86	–	–	4.104	3.276
x1 = 0.2487	1069.2	1066.32	1702.1	1696.5	–	–
x1 = 0.298	1076.5	1073.51	–	–	4.94	3.936
x1 = 0.2998	1076.8	1073.79	1712.9	1705.8	–	–
x1 = 0.3318	1080.9	1077.77	1716.6	1708.7	–	–
x1 = 0.3399	1081.8	1078.69	–	–	5.663	4.507
x1 = 0.3921	1087.31	1084.09	–	–	6.621	5.261
x1 = 0.3981	1087.84	1084.61	1719.4	1710.4	–	–
x1 = 0.4446	1091.88	–	–	–	7.638	6.062
x1 = 0.4521	1092.39	–	1718.6	1708.8	–	–
x1 = 0.4934	1095.4	1092.05	1716.1	1705.9	–	–
x1 = 0.5007	–	1092.56	–	–	8.782	6.959
x1 = 0.5485	1098.81	1095.42	–	–	9.81	7.764
x1 = 0.552	1099	–	1711.5	1700.9	–	–
x1 = 0.5846	1100.79	1097.38	1708.3	1697.6	–	–
x1 = 0.6004	1101.51	1098.09	–	–	10.95	8.662
x1 = 0.6451	1103.53	1100.1	–	–	11.97	9.461
x1 = 0.6481	1103.65	1100.22	1702.1	1691	–	–
x1 = 0.6773	1104.88	1101.43	1699	1687.8	–	–
x1 = 0.7012	1105.75	1102.3	–	–	13.33	10.55
x1 = 0.7421	1107.16	1103.69	1692.2	1680.8	–	–
x1 = 0.7435	1107.22	1103.76	–	–	14.35	11.32
x1 = 0.7811	1108.41	1104.94	1688	1676.5	–	–
x1 = 0.7907	1108.69	1105.22	–	–	15.51	12.24
x1 = 0.8497	–	1106.83	1681	1669.3	–	–
x1 = 0.8505	–	1106.84	–	–	16.94	13.35
x1 = 0.89	1111.29	1107.8	–	–	17.91	14.12
x1 = 0.9002	1111.55	1108.06	1676	1664.3	–	–
x1 = 0.9059	1111.66	1108.17	1675.5	1663.8	–	–
x1 = 0.912	1111.78	1108.29	1675	1663.3	–	–
x1 = 0.9299	1112.18	1108.69	1673.3	1661.5	–	–
x1 = 0.9413	1112.43	1108.94	1672.2	1660.4	–	–
x1 = 0.9495	1112.62	1109.13	1671.4	1659.6	–	–
x1 = 0.9532	1112.69	1109.19	–	–	19.48	15.35
x1 = 0.9546	1112.73	1109.23	1671	1659.2	–	–
x1 = 0.9681	1112.99	1109.49	1669.9	1658.1	–	–
x1 = 0.9789	1113.19	–	1669	1657.2	–	–
x1 = 0.9893	1113.4	–	1667.9	1656.1	–	–
x1 = 1	1113.72	–	1666.5	1654.7	20.61	16.22
